target: T1, human Cav3.2 T-type Ca2+ channel (Homo sapiens, UniProt O95180); assay: Inhibitory effect for intracellular calcium response via Cav3.2 T-type Ca2+ channels (FLIPR Calcium 3 Assay Kit); assay type: cell-based; settings: not given
T1 construct: expressed in transfected cells; host or cells: KJMGER8 cells (Namalwa cell-derived cell line)
T1 sequence (O95180 whole entry): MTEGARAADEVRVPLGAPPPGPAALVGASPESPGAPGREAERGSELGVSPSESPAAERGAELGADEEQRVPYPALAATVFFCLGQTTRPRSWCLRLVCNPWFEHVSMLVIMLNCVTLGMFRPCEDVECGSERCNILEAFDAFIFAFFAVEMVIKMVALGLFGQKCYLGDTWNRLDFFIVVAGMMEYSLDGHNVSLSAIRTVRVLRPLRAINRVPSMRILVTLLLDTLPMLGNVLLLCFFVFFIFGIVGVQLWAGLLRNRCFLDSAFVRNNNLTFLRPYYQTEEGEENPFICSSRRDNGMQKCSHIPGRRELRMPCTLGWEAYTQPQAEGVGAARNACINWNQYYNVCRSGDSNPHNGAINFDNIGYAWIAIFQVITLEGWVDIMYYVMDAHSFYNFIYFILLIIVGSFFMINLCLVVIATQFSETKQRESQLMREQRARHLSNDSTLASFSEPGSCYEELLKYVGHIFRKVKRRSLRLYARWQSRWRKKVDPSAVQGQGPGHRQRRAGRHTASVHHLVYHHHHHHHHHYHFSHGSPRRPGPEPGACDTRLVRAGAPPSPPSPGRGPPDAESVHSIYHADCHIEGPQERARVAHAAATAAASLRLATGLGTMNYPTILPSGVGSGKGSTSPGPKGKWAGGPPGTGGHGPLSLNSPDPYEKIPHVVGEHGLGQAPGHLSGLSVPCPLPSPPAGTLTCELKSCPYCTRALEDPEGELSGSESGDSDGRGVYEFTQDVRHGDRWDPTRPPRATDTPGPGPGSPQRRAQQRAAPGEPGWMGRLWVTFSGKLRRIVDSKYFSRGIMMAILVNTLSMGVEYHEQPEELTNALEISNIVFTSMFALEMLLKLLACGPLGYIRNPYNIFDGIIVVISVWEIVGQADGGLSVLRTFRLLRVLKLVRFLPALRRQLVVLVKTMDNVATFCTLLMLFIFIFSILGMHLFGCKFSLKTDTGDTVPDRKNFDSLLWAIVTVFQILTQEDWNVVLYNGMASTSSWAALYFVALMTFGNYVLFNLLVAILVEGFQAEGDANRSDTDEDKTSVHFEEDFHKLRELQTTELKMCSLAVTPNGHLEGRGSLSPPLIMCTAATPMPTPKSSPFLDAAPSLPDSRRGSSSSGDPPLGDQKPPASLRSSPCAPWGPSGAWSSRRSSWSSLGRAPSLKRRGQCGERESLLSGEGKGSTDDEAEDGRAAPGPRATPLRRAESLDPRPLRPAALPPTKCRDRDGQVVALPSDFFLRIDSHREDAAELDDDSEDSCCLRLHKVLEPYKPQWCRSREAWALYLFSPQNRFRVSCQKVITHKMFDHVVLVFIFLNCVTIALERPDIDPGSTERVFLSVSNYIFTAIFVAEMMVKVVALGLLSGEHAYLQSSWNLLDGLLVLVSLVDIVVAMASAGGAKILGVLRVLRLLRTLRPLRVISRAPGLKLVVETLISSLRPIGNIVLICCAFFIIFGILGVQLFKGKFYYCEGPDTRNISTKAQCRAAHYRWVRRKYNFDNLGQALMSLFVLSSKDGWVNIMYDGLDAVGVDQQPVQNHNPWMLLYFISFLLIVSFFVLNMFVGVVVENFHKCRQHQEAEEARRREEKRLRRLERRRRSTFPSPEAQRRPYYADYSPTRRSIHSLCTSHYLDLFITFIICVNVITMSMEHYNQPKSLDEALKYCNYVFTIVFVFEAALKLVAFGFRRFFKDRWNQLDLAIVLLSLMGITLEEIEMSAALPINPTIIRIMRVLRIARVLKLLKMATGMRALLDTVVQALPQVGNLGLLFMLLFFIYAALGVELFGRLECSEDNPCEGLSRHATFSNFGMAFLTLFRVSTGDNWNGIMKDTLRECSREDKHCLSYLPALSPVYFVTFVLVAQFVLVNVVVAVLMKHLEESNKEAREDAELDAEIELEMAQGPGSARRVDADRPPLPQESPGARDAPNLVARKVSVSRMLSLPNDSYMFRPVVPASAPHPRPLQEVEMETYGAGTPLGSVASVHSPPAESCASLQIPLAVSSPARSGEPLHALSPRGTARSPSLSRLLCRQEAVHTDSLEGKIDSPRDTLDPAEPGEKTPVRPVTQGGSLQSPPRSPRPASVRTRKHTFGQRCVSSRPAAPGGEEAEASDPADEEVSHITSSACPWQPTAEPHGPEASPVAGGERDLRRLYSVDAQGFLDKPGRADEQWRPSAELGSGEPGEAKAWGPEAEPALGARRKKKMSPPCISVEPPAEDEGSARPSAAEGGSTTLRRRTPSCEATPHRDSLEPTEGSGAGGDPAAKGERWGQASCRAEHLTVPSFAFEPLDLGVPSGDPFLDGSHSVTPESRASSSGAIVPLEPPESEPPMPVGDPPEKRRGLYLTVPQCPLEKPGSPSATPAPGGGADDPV

With `CCN(CC)C(=O)c1ccn2c(SC3CCCCC3)c(C(C)C)nc2c1` [Compound 12, 3-Cyclohexylthio-N,N-diethyl-2-isopropylimidazo[1,2-a]pyridine-7-carboxamide] as the molecule, how does the IC50 read?
The IC50 was less than 100 nM.

Which IC50 does the source give for `CC(C)(C)c1nc2cc(C(=O)NCc3ccccc3)ccn2c1CC1CCCCC1` [Compound 16, N-Benzyl-2-tert-butyl-3-cyclohexylmethylimidazo[1,2-a]pyridine-7-carboxamide] here?
The IC50 was less than 100 nM.

For `CC(C)(C)c1nc2cc(C(=O)NNC(=O)c3ccccc3)ccn2c1CC1CCCCC1` [Compound 17, N′-Benzoyl-2-tert-butyl-3-cyclohexylmethylimidazo[1,2-a]pyridine-7-carbohydrazide], which IC50 is on record?
The IC50 was less than 100 nM.

How did the IC50 turn out when `CC(C)CC(=O)N(C)c1ccn2c(CC3CCCCC3)c(C(C)(C)C)nc2c1` [Compound 19, N-(2-tert-Butyl-3-cyclohexylmethylimidazo[1,2-a]pyridin-7-yl)-N,3-dimethylbutanamide] was run?
The IC50 was less than 100 nM.

`CN(C)S(=O)(=O)N(C)c1ccn2c(CC3CCCCC3)c(C(C)(C)C)nc2c1` [Compound 20, N-(2-tert-Butyl-3-cyclohexylmethylimidazo[1,2-a]pyridin-7-yl)-N,N′,N′-trimethylsulfamide] was tested. Which IC50 did it give?
The IC50 was less than 100 nM.

Which IC50 does the source give for `CC(C)c1nc2cc(C(=O)Nc3nccs3)ccn2c1COC1CCCCC1` [Compound 25, 3-Cyclohexyloxymethyl-2-isopropyl-N-(thiazol-2-yl)imidazo[1,2-a]pyridine-7-carboxamide] here?
Its IC50 is less than 100 nM.

`CC(C)c1nc2cc(C(=O)Nc3ccncc3)ccn2c1Cc1ccccc1` [Compound 37, 3-Benzyl-2-isopropyl-N-(pyridin-4-yl)imidazo[1,2-a]pyridine-7-carboxamide] was tested. Which IC50 did it give?
Its IC50 is less than 100 nM.

`Cc1cn2c(S(=O)(=O)C3CCCCC3)c(C(C)C)nc2cc1C(=O)Nc1ccncc1` [Compound 39, 3-Cyclohexylsulfonyl-2-isopropyl-6-methyl-N-(pyridin-4-yl)imidazo[1,2-a]pyridine-7-carboxamide] was tested. Which IC50 did it give?
The IC50 was less than 100 nM.

`CC(C)c1nc2cc(C(=O)Nc3ccccc3)ccn2c1SC1CCCCC1` [Compound 40, 3-Cyclohexylthio-2-isopropyl-N-phenylimidazo[1,2-a]pyridine-7-carboxamide] was tested. Which IC50 did it give?
The IC50 was less than 100 nM.

With `Cc1c(C(=O)Nc2ccncc2)ccn2c(CC3CCCCC3)c(C(C)(C)C)nc12` [Compound 42, 2-tert-Butyl-3-cyclohexylmethyl-8-methyl-N-(pyridin-4-yl)imidazo[1,2-a]pyridine-7-carboxamide] as the molecule, how does the IC50 read?
Its IC50 is less than 100 nM.

With `CC1(C)COCCC1NC(=O)c1ccn2c(CC3CCC(F)(F)CC3)c(C(F)(F)F)nc2c1` (stereo not shown) [Compound 53, 3-(4,4-Difluorocyclohexylmethyl)-N-(3,3-dimethyltetrahydro-2H-pyran-4-yl)-2-trifluoromethylimidazo[1,2-a]pyridine-7-carboxamide] as the molecule, how does the IC50 read?
Its IC50 is less than 100 nM.

With `COCC1(CNC(=O)c2ccn3c(CC4CCC(F)(F)CC4)c(C(F)(F)F)nc3c2)CCOCC1` [Compound 59, 3-(4,4-Difluorocyclohexylmethyl)-N-[{4-(methoxymethyl)tetrahydro-2H-pyran-4-yl}methyl]-2-trifluoromethylimidazo[1,2-a]pyridine-7-carboxamide] as the molecule, how does the IC50 read?
The IC50 was less than 100 nM.

For `O=C(NC1CCOCC1)c1ccn2c(CC3CCC(F)(F)CC3)c(C3(C(F)(F)F)CC3)nc2c1` [Compound 65, 3-(4,4-Difluorocyclohexylmethyl)-N-(tetrahydro-2H-pyran-4-yl)-2-(1-trifluoromethylcyclopropyl)imidazo[1,2-a]pyridine-7-carboxamide], which IC50 is on record?
Its IC50 is less than 100 nM.

`Cc1cc(C(=O)Nc2ccccc2N)cc2nc(C(F)(F)F)c(CC3CCC(F)(F)CC3)n12` [Compound 68, N-(2-Aminophenyl)-3-(4,4-difluorocyclohexylmethyl)-5-methyl-2-trifluoromethylimidazo[1,2-a]pyridine-7-carboxamide] was tested. Which IC50 did it give?
Its IC50 is less than 100 nM.

With `Cc1cc(C(=O)NC2CCC(=O)CC2)cc2nc(C(F)(F)F)c(CC3CCC(F)(F)CC3)n12` [Compound 71, 3-(4,4-Difluorocyclohexylmethyl)-5-methyl-N-(4-oxocyclohexyl)-2-trifluoromethylimidazo[1,2-a]pyridine-7-carboxamide] as the molecule, how does the IC50 read?
Its IC50 is less than 100 nM.

Which IC50 does the source give for `Cc1cc(C(=O)NC2CCSCC2)cc2nc(C(F)(F)F)c(CC3CCC(F)(F)CC3)n12` [Compound 74, 3-(4,4-Difluorocyclohexylmethyl)-5-methyl-N-(tetrahydro-2H-thiopyran-4-yl)-2-trifluoromethylimidazo[1,2-a]pyridine-7-carboxamide] here?
Its IC50 is less than 100 nM.

With `Cc1cc(C(=O)NCC2(CO)CCOCC2)cc2nc(C(F)(F)F)c(CC3CCC(F)(F)CC3)n12` [Compound 85, 3-(4,4-Difluorocyclohexylmethyl)-N-[{4-(hydroxymethyl)tetrahydro-2H-pyran-4-yl}methyl]-5-methyl-2-trifluoromethylimidazo[1,2-a]pyridine-7-carboxamide] as the molecule, how does the IC50 read?
Its IC50 is less than 100 nM.

How did the IC50 turn out when `Cc1cc(C(=O)NCC2(F)CCOCC2)cc2nc(C(F)(F)F)c(CC3CCC(F)(F)CC3)n12` [Compound 87, 3-(4,4-Difluorocyclohexylmethyl)-N-{(4-fluorotetrahydro-2H-pyran-4-yl)methyl}-5-methyl-2-trifluoromethylimidazo[1,2-a]pyridine-7-carboxamide] was run?
The IC50 was less than 100 nM.

Which IC50 does the source give for `Cc1cc(C(=O)NOC2CCOCC2)cc2nc(C(F)(F)F)c(CC3CCC(F)(F)CC3)n12` [Compound 90, 3-(4,4-Difluorocyclohexylmethyl)-5-methyl-N-(tetrahydro-2H-pyran-4-yloxy)-2-trifluoromethylimidazo[1,2-a]pyridine-7-carboxamide] here?
The IC50 was less than 100 nM.

`Cc1cc(C(=O)N(C)C2CCOCC2)cc2nc(C(F)(F)F)c(CC3CCC(F)(F)CC3)n12` [Compound 91, 3-(4,4-Difluorocyclohexylmethyl)-N,5-dimethyl-N-(tetrahydro-2H-pyran-4-yl)-2-trifluoromethylimidazo[1,2-a]pyridine-7-carboxamide] was tested. Which IC50 did it give?
The IC50 was less than 100 nM.

With `Cc1cc(C(=O)NCC2(C)COC2)cc2nc(C(F)(F)F)c(CC3CCC(F)(F)CC3)n12` [Compound 95, 3-(4,4-Difluorocyclohexylmethyl)-5-methyl-N-{(3-methyloxetan-3-yl)methyl}-2-trifluoromethylimidazo[1,2-a]pyridine-7-carboxamide] as the molecule, how does the IC50 read?
Its IC50 is less than 100 nM.

`COC(C)(C)c1nc2cc(C(=O)NC3CCOCC3)cc(C)n2c1CC1CCC(F)(F)CC1` [Compound 97, 3-(4,4-Difluorocyclohexylmethyl)-2-(2-methoxypropan-2-yl)-5-methyl-N-(tetrahydro-2H-pyran-4-yl)imidazo[1,2-a]pyridine-7-carboxamide] was tested. Which IC50 did it give?
The IC50 was less than 100 nM.

Which IC50 does the source give for `O=C(Nc1ccccc1)c1cc(Cl)n2c(CC3CCC(F)(F)CC3)c(C(F)(F)F)nc2c1` [Compound 102, 5-Chloro-3-(4,4-difluorocyclohexylmethyl)-N-phenyl-2-trifluoromethylimidazo[1,2-a]pyridine-7-carboxamide] here?
The IC50 was less than 100 nM.

With `O=C(NCC1CCOC1)c1cc(Cl)n2c(CC3CCC(F)(F)CC3)c(C(F)(F)F)nc2c1` (stereo not shown) [Compound 106, 5-Chloro-3-(4,4-difluorocyclohexylmethyl)-N-{(tetrahydrofuran-3-yl)methyl}-2-trifluoromethylimidazo[1,2-a]pyridine-7-carboxamide] as the molecule, how does the IC50 read?
The IC50 was less than 100 nM.

For `CC(C)(c1nc2cc(C(=O)NC3CCOCC3)c(Cl)cn2c1CC1CCC(F)(F)CC1)C(F)(F)F` [Compound 115, 6-Chloro-3-(4,4-difluorocyclohexylmethyl)-N-(tetrahydro-2H-pyran-4-yl)-2-(1,1,1-trifluoro-2-methylpropan-2-yl)imidazo[1,2-a]pyridine-7-carboxamide], which IC50 is on record?
The IC50 was less than 100 nM.

With `O=C(Nc1ccccc1)c1cc2nc(C(F)(F)F)c(CC3CCC(F)(F)CC3)n2cc1Br` [Compound 117, 6-Bromo-3-(4,4-difluorocyclohexylmethyl)-N-phenyl-2-trifluoromethylimidazo[1,2-a]pyridine-7-carboxamide] as the molecule, how does the IC50 read?
Its IC50 is less than 100 nM.

same assay, conditions: human Cav3.2-expressing KJMGER8 cells (Namalwa-derived); calcium response induced by 5 mmol/L CaCl2; normalised to 3 μmol/L mibefradil; read-out: IC50 for the human Cav3.2 T-type Ca2+ current

Which IC50 does the source give for `CC(C)c1nc2cc(NC(=O)c3ccccc3)ccn2c1COC1CCCCC1` [Compound 28, N-(3-Cyclohexyloxymethyl-2-isopropylimidazo[1,2-a]pyridin-7-yl)benzamide] here?
Its IC50 is less than 100 nM.

With `CC(C)c1nc2cc(-c3nc4ccccc4[nH]3)ccn2c1COC1CCCCC1` [Compound 33, 2-(3-Cyclohexyloxymethyl-2-isopropylimidazo[1,2-a]pyridin-7-yl)-1H-benzimidazole] as the molecule, how does the IC50 read?
Its IC50 is less than 100 nM.

For `CS(=O)(=O)c1cccc(NC(=O)c2ccn3c(CC4CCC(F)(F)CC4)c(C(F)(F)F)nc3c2)c1` [Compound 48, 3-(4,4-Difluorocyclohexylmethyl)-N-(3-methanesulfonylphenyl)-2-trifluoromethylimidazo[1,2-a]pyridine-7-carboxamide], which IC50 is on record?
Its IC50 is less than 100 nM.

With `CCC1(CNC(=O)c2ccn3c(CC4CCC(F)(F)CC4)c(C(F)(F)F)nc3c2)COC1` [Compound 56, 3-(4,4-Difluorocyclohexylmethyl)-N-{(3-ethyloxetan-3-yl)methyl}-2-trifluoromethylimidazo[1,2-a]pyridine-7-carboxamide] as the molecule, how does the IC50 read?
The IC50 was less than 100 nM.

For `CC1(CNC(=O)c2ccn3c(CC4CCC(F)(F)CC4)c(C(F)(F)F)nc3c2)CCCO1` (stereo not shown) [Compound 57, 3-(4,4-Difluorocyclohexylmethyl)-N-{(2-methyltetrahydrofuran-2-yl)methyl}-2-trifluoromethylimidazo[1,2-a]pyridine-7-carboxamide], which IC50 is on record?
The IC50 was less than 100 nM.

Which IC50 does the source give for `COC1(CNC(=O)c2cc(C)n3c(CC4CCC(F)(F)CC4)c(C(F)(F)F)nc3c2)CCOCC1` [Compound 86, 3-(4,4-Difluorocyclohexylmethyl)-N-{(4-methoxytetrahydro-2H-pyran-4-yl)methyl}-5-methyl-2-trifluoromethylimidazo[1,2-a]pyridine-7-carboxamide] here?
The IC50 was less than 100 nM.

How did the IC50 turn out when `Cc1cc(C(=O)NCC2COCCOC2)cc2nc(C(F)(F)F)c(CC3CCC(F)(F)CC3)n12` [Compound 93, N-{(1,4-Dioxepan-6-yl)methyl}-3-(4,4-difluorocyclohexylmethyl)-5-methyl-2-trifluoromethylimidazo[1,2-a]pyridine-7-carboxamide] was run?
Its IC50 is less than 100 nM.

Which IC50 does the source give for `O=C(Nc1ccccc1)c1cc2nc(C(F)(F)F)c(CC3CCC(F)(F)CC3)n2cc1Cl` [Compound 107, 6-Chloro-3-(4,4-difluorocyclohexylmethyl)-N-phenyl-2-trifluoromethylimidazo[1,2-a]pyridine-7-carboxamide] here?
The IC50 was less than 100 nM.

— US9000186B2, “Ring-fused heterocyclic derivative” (Kyowa Hakko Kirin Co., Ltd., priority 2011, dated 2015)
